Tests used:
[1] = molecular target: Potassium-transporting ATPase (Sus scrofa, UniProt P18434+P19156); test: Inhibition of H+/K+ ATPase from porcine gastric mucosal membrane vesicles; format: tissue-based, Gastric mucosa
[2] = molecular target: T1, Potassium-transporting ATPase (Rattus norvegicus) (UniProt P09626+P18598); test: Gastric antisecretory activity was tested in rats at 30 mg/kg, po expressed as the percentage of inhibition against the acid output of the control group; format: functional, organism-based; design: dose 30 mg/kg
[3] = molecular target: T1, Potassium-transporting ATPase (Rattus norvegicus); test: Effect in vivo on gastric H+/K+ -ATPase activity at 48 hrs following intraduodenal administration of 40 mg/Kg in rats; format: functional, organism-based; details: Stomach
[4] = molecular target: T1, Potassium-transporting ATPase (Rattus norvegicus); test: Effect in vivo on gastric H+/K+ ATPase activity at 48 hrs following intraduodenal administration of 40 mg/Kg in rats injected intraperitoneally with 1 mg/Kg of cycloheximide; format: functional, organism-based; details: Stomach
[5] = molecular target: T1, Potassium-transporting ATPase (Rattus norvegicus); test: Effect in vivo on gastric H+/K+ -ATPase activity at 24 hrs following intraduodenal administration of 40 mg/Kg in rats; format: functional, organism-based; details: Stomach
[6] = molecular target: T1, Potassium-transporting ATPase (Rattus norvegicus); test: Effect in vivo on gastric H+/K+ -ATPase activity at 3 hrs following intraduodenal administration of 40 mg/Kg in rats; format: functional, organism-based; details: Stomach
[7] = molecular target: T1, Potassium-transporting ATPase (Rattus norvegicus); test: Effect in vivo on gastric H+/K+ ATPase activity at 1.5 hrs following intraduodenal administration of 40 mg/Kg in rats; format: functional, organism-based; details: Stomach
[8] = molecular target: T1, Potassium-transporting ATPase (Rattus norvegicus); test: Effect in vivo on gastric H+/K+ ATPase activity at 24 hrs following intraduodenal administration of 40 mg/Kg in rats injected intraperitoneally with 1 mg/Kg of cycloheximide; format: functional, organism-based; details: Stomach
[9] = molecular target: T1, Potassium-transporting ATPase (Rattus norvegicus); test: Effect in vivo on gastric H+/K+ -ATPase activity at 6 hrs following intraduodenal administration of 40 mg/Kg in rats; format: functional, organism-based; details: Stomach
[10] = molecular target: T1, Potassium-transporting ATPase (Rattus norvegicus); test: Effect in vivo on gastric H+/K+ ATPase activity at 10 hrs following intraduodenal administration of 40 mg/Kg in rats; format: functional, organism-based; details: Stomach
[11] = molecular target: Potassium-transporting ATPase (Sus scrofa, UniProt P19156); test: In vitro inhibition against H+/K+ ATPase from porcine gastric mucosal membrane vesicles; format: tissue-based, Gastric mucosa
Chain of Potassium-transporting ATPase (Sus scrofa, UniProt P19156) (P18434 whole entry): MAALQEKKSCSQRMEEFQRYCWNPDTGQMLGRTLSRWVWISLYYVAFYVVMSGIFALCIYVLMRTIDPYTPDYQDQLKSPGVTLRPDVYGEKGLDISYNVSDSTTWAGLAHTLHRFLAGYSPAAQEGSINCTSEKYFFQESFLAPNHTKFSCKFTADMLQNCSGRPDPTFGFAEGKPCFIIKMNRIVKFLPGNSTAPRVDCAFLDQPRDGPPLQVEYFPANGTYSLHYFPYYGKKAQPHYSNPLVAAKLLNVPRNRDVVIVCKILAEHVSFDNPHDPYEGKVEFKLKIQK
Chain of Potassium-transporting ATPase (Sus scrofa, UniProt P19156) (P19156 whole entry): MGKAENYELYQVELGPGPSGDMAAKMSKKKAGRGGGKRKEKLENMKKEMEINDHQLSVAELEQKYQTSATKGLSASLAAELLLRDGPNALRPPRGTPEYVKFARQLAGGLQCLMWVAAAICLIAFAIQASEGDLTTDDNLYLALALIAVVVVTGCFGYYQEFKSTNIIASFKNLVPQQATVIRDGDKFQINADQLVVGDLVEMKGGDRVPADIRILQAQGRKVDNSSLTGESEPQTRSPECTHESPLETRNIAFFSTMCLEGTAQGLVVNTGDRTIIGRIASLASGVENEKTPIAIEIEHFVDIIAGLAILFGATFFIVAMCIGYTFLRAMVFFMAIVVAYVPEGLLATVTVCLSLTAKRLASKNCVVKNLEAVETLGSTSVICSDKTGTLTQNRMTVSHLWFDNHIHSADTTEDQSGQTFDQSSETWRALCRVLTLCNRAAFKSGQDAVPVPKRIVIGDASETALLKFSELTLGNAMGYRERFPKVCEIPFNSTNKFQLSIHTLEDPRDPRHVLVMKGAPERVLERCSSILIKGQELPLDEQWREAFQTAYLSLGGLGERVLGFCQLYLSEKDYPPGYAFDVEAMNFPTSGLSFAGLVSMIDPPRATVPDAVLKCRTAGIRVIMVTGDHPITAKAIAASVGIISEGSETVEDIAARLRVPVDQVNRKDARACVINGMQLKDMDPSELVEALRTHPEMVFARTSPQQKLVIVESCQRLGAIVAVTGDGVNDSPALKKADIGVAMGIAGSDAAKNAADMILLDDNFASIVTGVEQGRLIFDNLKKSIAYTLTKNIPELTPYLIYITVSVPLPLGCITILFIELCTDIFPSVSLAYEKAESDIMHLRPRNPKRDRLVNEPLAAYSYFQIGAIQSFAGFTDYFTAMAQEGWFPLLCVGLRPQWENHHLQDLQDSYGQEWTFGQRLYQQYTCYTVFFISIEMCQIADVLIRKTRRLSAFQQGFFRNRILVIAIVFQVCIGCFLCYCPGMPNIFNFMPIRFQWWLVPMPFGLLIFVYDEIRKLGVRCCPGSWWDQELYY

[12] = molecular target: T1, Potassium-transporting ATPase (Rattus norvegicus); test: Effect in vivo on gastric H+/K+ ATPase activity at 6 hrs following intraduodenal administration of 40 mg/Kg in rats; format: functional, organism-based; details: Stomach
[13] = molecular target: T1, Potassium-transporting ATPase (Rattus norvegicus); test: Effect in vivo on gastric H+/K+ ATPase activity at 24 hrs following intraduodenal administration of 40 mg/Kg in rats; format: functional, organism-based; details: Stomach
[14] = molecular target: T1, Potassium-transporting ATPase (Rattus norvegicus); test: Effect in vivo on gastric H+/K+ ATPase activity at 10 hrs following intraduodenal administration of 40 mg/Kg in rats injected intraperitoneally with 1 mg/Kg of cycloheximide; format: functional, organism-based; details: Stomach
[15] = molecular target: T1, Potassium-transporting ATPase (Rattus norvegicus); test: Effect in vivo on gastric H+/K+ ATPase activity at 3 hrs following intraduodenal administration of 40 mg/Kg in rats; format: functional, organism-based; details: Stomach

Chain of Potassium-transporting ATPase (Sus scrofa, UniProt P18434+P19156) (P18434 whole entry): as the sequence (P18434 whole entry) above
Chain of Potassium-transporting ATPase (Sus scrofa, UniProt P18434+P19156) (P19156 whole entry): as the sequence (P19156 whole entry) above

IC50 [1]	inhibition [2]	SMILES	other results
Not Active	0%	[O-][S+](Cc1ccccc1-n1cccn1)c1nccn1-c1ccccn1 (configuration not stated)	
Not Active	53%	CCN(CC)c1ccccc1C[S+]([O-])c1nc2c(n1-c1ncccc1C)CCC2 (configuration not stated)	
Not Active	0%	CCN(CC)c1ccccc1C[S+]([O-])c1nc2c(n1-c1ccncc1)CCC2 (configuration not stated)	
Not Active	30%	CN(C)c1ccccc1C[S+]([O-])c1nccn1-c1cccnc1 (configuration not stated)	
Not Active	85%	COc1cccnc1-n1ccnc1[S+]([O-])Cc1ccccc1N1CCOCC1 (configuration not stated)	
Not Active	0%	CN(C)c1ccccc1C[S+]([O-])c1ncc(-c2ccccc2)n1-c1ccccc1 (configuration not stated)	
Not Active	0%	CN(C)c1ccccc1C[S+]([O-])c1ncc(-c2ccccc2)n1Cc1ccccc1 (configuration not stated)	
Not Active	75%	CC(=O)Nc1ccccc1C[S+]([O-])c1nc2c(n1-c1ccccn1)CCC2 (configuration not stated)	
Not Active	90%	COc1cccnc1-n1ccnc1[S+]([O-])Cc1ccccc1NC(C)=O (configuration not stated)	
Not Active	82%	Cc1cccnc1-n1ccnc1[S+]([O-])Cc1ccccc1N1CCCCC1 (configuration not stated)	
Not Active	100%	Cc1cccnc1-n1ccnc1[S+]([O-])Cc1ccccc1N1CCOCC1 (configuration not stated)	
Not Active	22%	[O-][S+](Cc1ccccc1-n1ccnc1)c1nccn1-c1ccccn1 (configuration not stated)	
Not Active	38%	CCN(CC)c1ccccc1C[S+]([O-])c1nc2c(n1Cc1ccccn1)CCC2 (configuration not stated)	
Not Active	80%	[O-][S+](Cc1ccccc1N1CCOCC1)c1nc2c(n1-c1ccccn1)CCC2 (configuration not stated)	
Not Active	0%	CN(C)c1ccccc1C[S+]([O-])c1nc(-c2ccccc2)cn1C (configuration not stated)	
	100%	COc1ccc2[nH]c([S+]([O-])Cc3ncc(C)c(OC)c3C)nc2c1 (configuration not stated)	Control [3]: 71.1%; Control [4]: 34.1%; Control [5]: 51.7%; Control [6]: 37.1%; Control [7]: 45.4%; Control [8]: 36.1%; Control [9]: 27.8%
Not Active	62%	COc1cccnc1-n1ccnc1[S+]([O-])Cc1ccccc1N1CCCCC1 (configuration not stated)	
Not Active	88%	[O-][S+](Cc1ccccc1-n1cccc1)c1nccn1-c1ccccn1 (configuration not stated)	
	95%	Cc1cccnc1-n1c([S+]([O-])Cc2ccccc2N)nc2c1CCC2 (configuration not stated)	Control [10]: 79.6%; IC50 [11]: > 100 µM; Control [12]: 69.2%; Control [13]: 88.9%; Control [14]: 72.9%; Control [15]: 46%; Control [7]: 48.8%; Control [8]: 95.4%
Not Active	99%	CC(=O)Nc1ccccc1C[S+]([O-])c1nccn1-c1ccccn1 (configuration not stated)	
Not Active	94%	CCN(CC)c1ccccc1C[S+]([O-])c1nccn1-c1ncccc1OC (configuration not stated)	
Not Active	47%	Cc1cccnc1-n1ccnc1[S+]([O-])Cc1ccccc1-n1cccc1 (configuration not stated)	

Source: ChEMBL document CHEMBL1129052, “2-[(2-Aminobenzyl)sulfinyl]-1-(2-pyridyl)-1,4,5,6-tetrahydrocyclopent[d]imidazoles as a novel class of gastric H+/K+-ATPase inhibitors” (J Med Chem, 1996)
